What was measured:
[1] = system: A375 malignant melanoma; assay: Cell proliferation inhibition assay (14C-thymidine incorporation), A375; format: cell-based; settings: Homo sapiens, A-375
Text: (§1) The ability of a test compound to inhibit unregulated cell proliferation may be determined by measuring incorporation of ^14C-labelled thymidine into newly synthesized DNA within cell lines derived from carcinomas originating from several tissues. Accordingly, the effect of a test compound on proliferation of cells with a variety of phenotypes may be determined.
(§2) Carcinoma cell lines used include the HeLa cervical adenocarcinoma from the American Type Culture Collection (ATCC Cat. #CCL2), A375 malignant melanoma (ATCC Cat. #CRL-1619) and HCT-116 colon carcinoma (ATCC Cat. #CCL-247).
(§3) The carcinoma cells are trypsinized and counted. The cells (3000-8000 count) are added to each well of a 96-well CytoStar tissue culture treated scintillating microplate (Amersham #RPNQO160) in complete medium (100 μL) and the plate is then incubated in complete medium for 24 hrs at 37° C. in an inert atmosphere containing 5% CO2.
(§4) Test compound (1 μL) in 100% DMSO is added to the plate test-wells with DMSO only added to control-wells. The plate is incubated in complete medium for a second 24 hr period at 37° C. in an atmosphere containing 5% CO2.
(§5) An aliquot of a solution of Methyl ^14C-thymidine (56 mC/mmol) (NEN #NEC568 or Amersham #CFA532) and complete medium (20 uL to provide 0.2 μCi/well) is then added to each well and the plate is incubated for a third 24 hr period at 37° C. in an atmosphere containing 5% CO2.
(§6) The plate contents are then discarded, the plate is washed twice with PBS (200 μL) and then PBS (200 μL) is added to each well. The plate is sealed and the degree of methyl ^14C-thymidine incorporation is quantified on a Packard Top Count.
(§7) For a series of test concentrations, the IC50 was derived by graphing percent inhibition against the log of the concentrations tested for a given compound with results shown in Table 2.

[2] = target: T1, Aurora-A (Mus musculus, UniProt P97477); assay: Aurora-A screening assay (33P-ATP FlashPlate kinase assay); format: biochemical, murine; settings: for IC50: 10 μM ATP; for inhibition at 10 µM: single test concentration 10 μM; for inhibition at 100 µM: single test concentration 100 μM
T1 construct: followed by the full length protein encoding the murine Aurora-A; polyhistidine (N); made in house; host or cells: Sf9 insect cells
T1 sequence (P97477 1-395): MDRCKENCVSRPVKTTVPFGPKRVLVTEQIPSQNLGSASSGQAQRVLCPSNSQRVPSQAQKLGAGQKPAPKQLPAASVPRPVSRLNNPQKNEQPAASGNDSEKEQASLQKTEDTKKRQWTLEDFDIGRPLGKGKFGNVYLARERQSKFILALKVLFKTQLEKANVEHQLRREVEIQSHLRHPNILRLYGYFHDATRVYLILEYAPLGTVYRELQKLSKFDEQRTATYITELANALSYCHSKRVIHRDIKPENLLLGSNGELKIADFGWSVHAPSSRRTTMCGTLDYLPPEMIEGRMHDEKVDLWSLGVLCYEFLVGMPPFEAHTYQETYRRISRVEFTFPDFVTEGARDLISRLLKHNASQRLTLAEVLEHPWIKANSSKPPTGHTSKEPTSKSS
Method: (§8) 70 μL of the kinase reaction mixture was dispensed into the well of a streptavidin coated FlashPlate™ (Cat. # SMP103, NEN, Boston, Mass.).
(§9) Test compound stock in 100% DMSO (1 μL) was added to the wells resulting in a final concentration of 1% DMSO in the reaction with a 100 μL final reaction volume. Each enzyme was diluted in 50 mM Tris-HCl pH=8.0, 0.1% BSA and 30 μL was added to each well to initiate the reaction. The reaction was incubated for one hour at 30° C. At the end of the 1 hr incubation, the reaction was terminated by aspirating the mixture from the plate and washing the wells twice with PBS containing 100 mM EDTA. The biotinylated peptide substrate became immobilized on the Flashplate™ and the incorporation of ^33P-γ-ATP was measured by reading the plate on a scintillation counter. Inhibition of the enzymatic activity was measured by observing a reduced amount of ^33P-γ-ATP incorporated into the immobilized peptide.
Aurora-A is a fusion protein containing a polyhistidine tag at the N terminus followed by the full length protein encoding the murine Aurora-A (Accession number GB BC014711) expressed and purified from sf9 insect cells. The assay used 400 ng of the N-terminal biotinylated peptide biotin-[…]-amide (Aurora-A) per well.
(§10) A maximum and minimum signal for the assay was determined on each plate. The percent inhibition of a test compound was calculated according to the formula: [formula]

[3] = system: HCT-116 colon carcinoma; assay: Cell proliferation inhibition assay (14C-thymidine incorporation), HCT116; format: cell-based; settings: Homo sapiens
Text: as §1, §2, §3, §4, §5, §6, §7

[4] = system: HeLa cervical adenocarcinoma; assay: Cell proliferation inhibition assay (14C-thymidine incorporation), HeLa; format: cell-based; settings: Homo sapiens
Text: as §1, §2, §3, §4, §5, §6, §7

[5] = target: T2, VEGF-R2 kinase domain (Rattus norvegicus, UniProt O08775); assay: VEGF-R2 screening assay (33P-ATP FlashPlate kinase assay); format: biochemical; settings: for IC50: 10 μM ATP; for inhibition at 100 µM: single test concentration 100 μM
T2 construct: polyhistidine (N)
Method: as §8, §9
The assay used 150 ng of the N-terminal biotinylated peptide biotin-[…]-amide (VEGF-R2) per well.
as §10

[6] = read-out: Aurora-A percent inhibition
[7] = read-out: VEGF-R2 percent inhibition

T2 sequence (O08775 786-1343): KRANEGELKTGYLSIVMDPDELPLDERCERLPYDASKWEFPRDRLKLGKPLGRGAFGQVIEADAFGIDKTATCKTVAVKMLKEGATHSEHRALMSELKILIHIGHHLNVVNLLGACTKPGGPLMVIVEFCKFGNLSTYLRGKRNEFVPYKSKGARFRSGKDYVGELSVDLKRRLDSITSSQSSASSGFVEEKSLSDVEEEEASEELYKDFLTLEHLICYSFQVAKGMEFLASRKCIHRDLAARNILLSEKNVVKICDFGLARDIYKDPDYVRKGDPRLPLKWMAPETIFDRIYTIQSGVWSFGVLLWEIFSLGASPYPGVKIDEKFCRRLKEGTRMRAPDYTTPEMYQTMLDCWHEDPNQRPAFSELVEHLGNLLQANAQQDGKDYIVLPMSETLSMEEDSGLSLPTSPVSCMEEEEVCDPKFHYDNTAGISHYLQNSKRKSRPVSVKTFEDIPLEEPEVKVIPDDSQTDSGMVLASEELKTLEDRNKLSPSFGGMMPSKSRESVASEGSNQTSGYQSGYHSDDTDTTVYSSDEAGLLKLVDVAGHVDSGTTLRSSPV

In the case of `CCN1CCN(CCCOc2ccc3[nH]c(-c4cccc5c4C(=O)NC5)cc3c2)CC1` [Cpd 1, 7-{5-[3-(4-ethyl-piperazin-1-yl)-propoxy]-1H-indol-2-yl}-2,3-dihydro-isoindol-1-one], the IC50 [1] is reported as 3.9 µM, the IC50 [2] is reported as 0.044 µM and the IC50 [3] is reported as 3.85 µM. It also gave an IC50 [4] of 5.31 µM and an IC50 [5] of 0.014 µM.

With `O=C1NCc2cccc(-c3cc4cc(OCCCN5CCC(CO)CC5)ccc4[nH]3)c21` [Cpd 2, 7-{5-[3-(4-hydroxymethyl-piperidin-1-yl)-propoxy]-1H-indol-2-yl}-2,3-dihydro-isoindol-1-one] the IC50 [1] was 0.763 µM, the IC50 [2] was 0.061 µM and the IC50 [3] was 2.26 µM. The IC50 [4] was 3.35 µM and the IC50 [5] was 0.018 µM.

`COc1ccc2[nH]c(-c3cccc4c3C(=O)NC4)cc2c1` [Cpd 3, 7-(5-methoxy-1H-indol-2-yl)-2,3-dihydro-isoindol-1-one] was tested, and the IC50 [1] was > 100 µM, the IC50 [2] was 0.07 µM and the IC50 [3] was > 100 µM. The IC50 [4] was > 100 µM and the IC50 [5] was 0.111 µM.

`O=C1NCc2cccc(-c3cc4cc(O)ccc4[nH]3)c21` [Cpd 4, 7-(5-hydroxy-1H-indol-2-yl)-2,3-dihydro-isoindol-1-one] gave an IC50 [1] of 4.85 µM, an IC50 [2] of 0.09 µM and an IC50 [3] of 6.09 µM. For the same compound, the IC50 [4] was 3.64 µM and the IC50 [5] was 0.119 µM.

`O=C1NCc2cccc(-c3cc4cc(OCCCO)ccc4[nH]3)c21` [Cpd 5, 7-[5-(3-hydroxy-propoxy)-1H-indol-2-yl]-2,3-dihydro-isoindol-1-one] showed an IC50 [1] of 4.4 µM, an IC50 [2] of 0.1 µM and an IC50 [3] of 6.47 µM. It also gave an IC50 [4] of 15 µM and an IC50 [5] of 0.03 µM.

In the case of `COc1cc2c(c(-c3cc4cc(OC)ccc4[nH]3)c1)C(=O)NC2` [Cpd 6, 5-methoxy-7-(5-methoxy-1H-indol-2-yl)-2,3-dihydro-isoindol-1-one], the IC50 [1] is reported as 3.02 µM, the IC50 [2] is reported as 0.1 µM and the IC50 [3] is reported as 4.28 µM. It also gave an IC50 [4] of 5.08 µM and an IC50 [5] of 0.103 µM.

Work on `O=C1NCc2cccc(-c3cc4ccccc4[nH]3)c21` [Cpd 7, 7-(1H-indol-2-yl)-2,3-dihydro-isoindol-1-one] yielded an IC50 [1] of 5.56 µM, an IC50 [2] of 0.1 µM and an IC50 [3] of 5.04 µM. For the same compound, the IC50 [4] was 3.71 µM and the IC50 [5] was 0.144 µM.

Compound `O=C1NCc2cccc(-c3cc4cc(OCCN5CCOCC5)ccc4[nH]3)c21` [Cpd 8, 7-[5-(2-morpholin-4-yl-ethoxy)-1H-indol-2-yl]-2,3-dihydro-isoindol-1-one] has an IC50 [1] of 2.7 µM, an IC50 [2] of 0.135 µM and an IC50 [3] of 5.74 µM. For the same compound, the IC50 [4] was 5.81 µM and the IC50 [5] was 0.074 µM.

Work on `O=C1NCc2cccc(-c3cc4cc(OCCCN5CCCCC5)ccc4[nH]3)c21` [Cpd 9, 7-[5-(3-piperidin-1-yl-propoxy)-1H-indol-2-yl]-2,3-dihydro-isoindol-1-one] yielded an IC50 [1] of 4.03 µM, an IC50 [2] of 0.179 µM and an IC50 [3] of 7.77 µM. The IC50 [4] was 6.06 µM and the IC50 [5] was 0.065 µM.

`O=C1NCc2cccc(-c3cc4cc(OCCN5CCCCC5)ccc4[nH]3)c21` [Cpd 10, 7-[5-(2-piperidin-1-yl-ethoxy)-1H-indol-2-yl]-2,3-dihydro-isoindol-1-one] showed an IC50 [1] of 0.437 µM, an IC50 [2] of 0.2 µM and an IC50 [3] of 2.34 µM. The IC50 [4] was 4.63 µM and the IC50 [5] was 0.056 µM.

`COc1ccc2[nH]c(-c3cccc4c3C(=O)NC4)nc2c1` [Cpd 11, 7-(5-methoxy-1H-benzoimidazol-2-yl)-2,3-dihydro-isoindol-1-one] was tested, and the IC50 [1] was > 10 µM, the IC50 [2] was 0.205 µM and the IC50 [3] was > 10 µM. The IC50 [4] was > 10 µM and the IC50 [5] was 0.142 µM.

In the case of `O=C1NCc2cccc(-c3ccc[nH]3)c21` [Cpd 12, 7-(1H-pyrrol-2-yl)-2,3-dihydro-isoindol-1-one], the IC50 [1] is reported as > 10 µM, the IC50 [2] is reported as 0.338 µM and the IC50 [3] is reported as > 100 µM. For the same compound, the IC50 [4] was 52.6 µM and the IC50 [5] was 1.1 µM.

For `COc1ccc2c(c1)cc(-c1ccc([N+](=O)[O-])c3c1C(=O)NC3)n2C(=O)OC(C)(C)C` [Cpd 15, 5-methoxy-2-(7-nitro-3-oxo-2,3-dihydro-1H-isoindol-4-yl)-indole-1-carboxylic acid tert-butyl ester], the IC50 [2] was 0.27 µM and the IC50 [5] was 1.52 µM.

Compound `COc1ccc2[nH]c(-c3ccc([N+](=O)[O-])c4c3C(=O)NC4)cc2c1` [Cpd 16, 7-(5-methoxy-1H-indol-2-yl)-4-nitro-2,3-dihydro-isoindol-1-one] has an IC50 [1] of 5.23 µM, an inhibition at 10 µM [2, 6] of 52% and an IC50 [3] of 3.09 µM. The IC50 [4] was 9.42 µM and the IC50 [5] was 0.0229 µM.

Compound `COc1ccc2[nH]c(-c3ccc(N)c4c3C(=O)NC4)cc2c1` [Cpd 17, 4-amino-7-(5-methoxy-1H-indol-2-yl)-2,3-dihydro-isoindol-1-one] has an IC50 [2] of 0.432 µM and an IC50 [5] of 0.0532 µM.

With `COc1ccc2[nH]c(-c3ccc(NC(C)=O)c4c3C(=O)NC4)cc2c1` [Cpd 18, N-[7-(5-methoxy-1H-indol-2-yl)-1-oxo-2,3-dihydro-1H-isoindol-4-yl]-acetamide] the inhibition at 100 µM [2, 6] was 64% and the IC50 [5] was > 100 µM.

Compound `O=C1NCc2cccc(-c3cc4cc(OCc5ccccc5)ccc4[nH]3)c21` [Cpd 19, 7-(5-benzyloxy-1H-indol-2-yl)-2,3-dihydro-isoindol-1-one] has an IC50 [2] of 21.2 µM and an IC50 [5] of 11.3 µM.

Work on `O=C1NCc2cccc(-c3c[nH]c4ccccc34)c21` [Cpd 20, 7-(1H-Indol-3-yl)-2,3-dihydro-isoindol-1-one] yielded an inhibition at 100 µM [2, 6] of 60% and an inhibition at 100 µM [5, 7] of 50%.

In the case of `COc1ccc2c(c1)cc(-c1cccc3c1C(=O)NC3=O)n2C(=O)OC(C)(C)C` [Cpd 21, 2-(1,3-dioxo-2,3-dihydro-1H-isoindol-4-yl)-5-methoxy-indole-1-carboxylic acid tert-butyl ester], the IC50 [1] is reported as > 100 µM, the IC50 [2] is reported as 0.27 µM and the IC50 [3] is reported as > 100 µM. The IC50 [4] was 43 µM and the IC50 [5] was 1.52 µM.

Work on `COc1ccc2[nH]c(-c3cccc4c3C(=O)NC4=O)cc2c1` [Cpd 22, 4-(5-methoxy-1H-indol-2-yl)-isoindole-1,3-dione] yielded an inhibition at 0.1 µM ([2]; single test concentration 0.1 μM, read-out: Aurora-A percent inhibition) of 30% and an inhibition at 0.1 µM ([5]; single test concentration 0.1 μM, read-out: VEGF-R2 percent inhibition) of 35%.

With `CC(C)(C)OC(=O)n1cccc1-c1cccc2c1C(=O)NC2` [Cpd 23, 2-(3-oxo-2,3-dihydro-1H-isoindol-4-yl)-pyrrole-1-carboxylic acid tert-butyl ester] the inhibition at 100 µM [2, 6] was 25% and the inhibition at 100 µM [5, 7] was 46%.

`CN1Cc2cccc(-c3ccc[nH]3)c2C1=O` [Cpd 25, 2-methyl-7-(1H-pyrrol-2-yl)-2,3-dihydro-isoindol-1-one] was tested, and the IC50 [2] was > 100 µM and the inhibition at 100 µM [5, 7] was 37%.

`CC(C)(C)OC(=O)n1c(-c2cccc3c2C(=O)NC3)cc2ccccc21` [Cpd 26, 2-(3-oxo-2,3-dihydro-1H-isoindol-4-yl)-indole-1-carboxylic acid tert-butyl ester] showed an inhibition at 100 µM [2, 6] of 61% and an inhibition at 100 µM [5, 7] of 34%.

`COc1ccc2c(c1)cc(-c1cccc3c1C(=O)NC3)n2C(=O)OC(C)(C)C` [Cpd 27, 5-methoxy-2-(3-oxo-2,3-dihydro-1H-isoindol-4-yl)-indole-1-carboxylic acid tert-butyl ester] was tested, and the IC50 [1] was > 10 µM, the inhibition at 10 µM [2, 6] was 48% and the IC50 [3] was > 10 µM. The IC50 [4] was 55.9 µM and the inhibition at 100 µM [5, 7] was 57%.

Reference: patent US20070161648A1, “Substituted dihydro-isoindolones useful in treating kinase disorders” (priority 2005, published 2007)
